In patent US10905757B2, “Cross-reactive T cell epitopes of HIV, SIV, and FIV for vaccines in humans and cats” (priority 2012, dated 2021):
Entries after “also recorded” stand apart in the source; their conditions may differ. Ends that are not written are not given here.

Columns and labels:
[1] = tested on: FIV infection of naïve cat PBMC; assay: In vitro FIV enhancing/inhibitory (E/I) assay in PBMC from naïve SPF cats (RT titer); assay type: cell-based; conditions: for effect on in vitro FIV infection: PBMC from naïve cats
Description: FIG. 35. FIV-enhancing versus inhibitory epitopes on peptides and MAPs used in pilot MAP Study. […] Abbreviation: MAP1 plus MAP2 mix (MAP1+2).
FIG. 36A and 36B. FIV/HIV-1 enhancing versus inhibitory epitopes. […] Four epitope peptides were tested in an in vivo efficacy study with prototype vaccine prime and MAP boosts against pathogenic FIV challenge (see MAP section).
To test the possibility that Fp4-3 peptide may be enhancing FIV infection, we performed an in vitro FIV enhancing/inhibitory analysis with all MAP peptides and immunogens. […]. Since MAP2 consisted of peptides FRT3-3 and FRT3-4 with a natural overlap (FIG. 34), such overlap may have blocked the enhancing activity of peptide FRT3-3 while allowing the inhibitory activity of peptide FRT3-4. […] Moreover, none of the MAP vaccinated cats had early detection or enhancement in viral load compared to the control cats. Perhaps, the strong immunity generated by the MAP2 has blocked the enhancing activity of the MAP1 when boosted together (Group 1, Table 3). To test this possibility, in vitro study is currently undergoing to evaluate whether MAP2 can block FIV enhancing activity of MAP1. Furthermore, more cats will be vaccinated with MAP 1b and MAP2 to determine the levels of cytotoxins generated to peptides Fp14-1, FRT3-3 and FRT3-4. Since these peptides have induced CTL-associated cytotoxin expression in T cells from HIV^+ subjects (FIGS. 31A-31B; FIG. 5 in (Sanou et al. 2013)), these EC peptides may also mediate their in vivo effects by inducing anti-FIV specific CTL activity.
However, only peptide Fp4-3 correlated with the in vitro enhancement induced by MAP1. Since the in vitro E/I assay uses PBMC from naïve specific pathogen free (SPF) cats, it is unlikely that the in vitro stimulation of anti-FIV CTLs occurred in the culture and eliminated the infected cells. More likely, these enhancing or inhibitory peptides induced cytokines (enhancement: IFNγ, TNFα, GM-CSF; inhibition: IFNα, IL10), chemokines (inhibition: MIP1α, MIP1β, SDF-1, RANTES), or cellular restriction factors (inhibition: Trim5α, APOBEC3g) that either enhanced or inhibited FIV/HIV-1 infection. […] IFNγ is produced during inflammatory responses to HIV-1 infection (Ipp and Zemlin 2013). Thus, high levels of antiviral cellular immune responses are needed while minimizing both non-specific and viral-specific activation of CD4^+ T cells which can enhance viral replication (Lane 2010). Removal of the enhancing epitopes on FIV and HIV-1 immunogens will be critical to produce an effective HIV-1 vaccine. To accomplish this goal, we will design a vaccine based on antiviral epitopes directed at inducing viral-specific CD4^+ CTLs, CD8^+ CTLs and polyfunctional T cells, and identifying viral enhancing epitopes to remove from vaccine candidates.

[2] = tested on: CD4+ T cells from HIV+ subjects; assay: Intracellular cytotoxin staining (ICS), CD4+ T cells from HIV+ subjects; assay type: cell-based, human; set-up: key to CD4^+ T-cell cytotoxins (4C): positive (+); negative (−) response; inhibitory (↓); not done (n); conditions: for CD4^+ T-cell cytotoxins (4C): HIV^+ subjects compared to HIV^− control group; for cytotoxin expression in CD4+ T cells (in words): ST/ART− subjects
Description: (§1) Briefly, 1×10^6PBMCs (freshly isolated) are stimulated with 20 μg of peptides for 6 hours in a total volume of 200 μL in a 96-well plate in presence of Golgi transport inhibitor (37° C., 5% CO2). The cells are processed as previously described (Horton et al. (2007)). Cells were stained with the LIVE/DEAD® fixable yellow dye (Invitrogen, Eugene, Oreg.). The monoclonal antibodies fluorochome-conjugated to human cytokines used are: APC-H7 to CD3 (clone SK7); BD Horizon V450 to CD4 (clone RPA-T4); Qdot to CD8 (clone 3B5); PE-cy7 to IFN-γ (clone 4S.B3); APC to IL-2 (clone MQ1-17H12) PerCP to perforin (clone B-D48); Alexa F1.700 to granzyme-B (clone GB11) and PE to granzyme-A (clone CB9). The flow cytometry data is collected using BD LSRII and analyzed with the FACS DIVA software.
(§2) The ICS analysis (Horton et al. (2007)) involved stimulating 0.5-1.0×10^6 freshly isolated PBMC for 6 h with the same peptide stimulant and culture conditions as the proliferation analysis in the presence of 1 μg/mL of Golgi transport inhibitor and monensin followed by labeling with LIVE/DEAD fixable yellow dye and then treatment with anti-CD16/CD32 antibody and T-cell phenotypic antibodies. The cells were subsequently fixed and permeabilized with Cytofix/Cytoperm solution (BD Biosciences) before reaction with anti-cytotoxin antibodies. The antibodies consisted of anti-CD3 APC-H7, anti-CD4 BD Horizon V450, and anti-CD8 FITC followed by anti-GrzB Alexa 700 and anti-GrzA PE (all from BD Biosciences), and anti-perforin PerCP (Abcam, Boston, Mass.).
(§3) In both analyses, 1.0-2.0×10^4 cells were fixed in phosphate-buffered saline (PBS) containing 2% paraformaldehyde and analyzed on BD LSRII using […] Software (BD Biosciences), with a positive threshold of 3% CFSE^low for CFSE-proliferation and 1% T cells expressing cytotoxin for ICS. The final value for each subject was derived after subtraction of the subject's medium control and the average value of peptide-stimulated cells from uninfected control subjects.
(§4) Flow cytometry (FACS) for measuring CFSE-proliferation and intracellular cytokine staining (ICS). Carboxyfluorescein diacetate succinimide ester (CFSE)-proliferation analysis was performed according to the manufacturer's protocol (Invitrogen) and processed as previously described (Lichterfeld et al. 2004) using the following modification: 2.5-5.0×10^5 CFSE-labeled PBMC stimulated for 4-5 days (37° C., 5% CO2) with 15-30 μg of peptides in culture media (AIM V medium, 25 μg/mL gentamycin, and 10% heat-inactivated fetal bovine serum). The ICS analysis was performed as previously described (Horton et al. 2007; Pattacini et al. 2012).
(§5) The antibodies used for the proliferation analysis consisted of anti-CD4 allophycocyanin (APC) anti-CD3 APC-H7, and anti-CD8 Pacific Blue, and those for ICS were anti-CD3 APC-H7, anti-CD4 BD Horizon V450, anti-CD8 FITC, anti-granzyme B (GrzB) Alexa 700, anti-granzyme A (GrzA) PE (BD Biosciences, Cat #555349, 560176, 558207, 560345, 555366, 560213, 558904), and anti-perforin PerCP (Abcam, Cat #ab86319). Both analyses were performed with BD LSRII and […]™ Software (BD Biosciences), using a positive threshold of >1% CFSE^low for CFSE-proliferation except for ICS studies with threshold of >0.1% T cells expressing cytotoxin. The final value for each subject was derived after subtracting the result of each HIV^+ subject with the media control followed by subtraction with the average response of the media-control subtracted HIV^− subjects.

[3] = tested on: CD8+ T cells from HIV+ subjects; assay: Intracellular cytotoxin staining (ICS: perforin, GrzA, GrzB, CD107a), CD8+ T cells from HIV+ subjects; assay type: cell-based, human; set-up: key to CD8^+ T-cell cytotoxins (8C): positive (+); negative (−) response; inhibitory (↓); not done (n); conditions: for CD8^+ T-cell cytotoxins (8C): HIV^+ subjects compared to HIV^− control group; for HIV+ subjects whose CD8+ T cells responded with one or more cytotoxins: five HIV+ subjects, individual 13-15mer peptides
Description: as §1, §2, §3, §4, §5

[4] = tested on: CD4+ or CD8+ T cells from HIV+ subjects; assay: Intracellular cytotoxin staining (ICS), CD4+ or CD8+ T cells from HIV+ responders; assay type: cell-based, human; conditions: for Cytotoxins: responders to Fp9 or Fp14 peptide pools; for cytotoxin and CD107a expression in CD4+ and CD8+ T cells (in words): p24 peptides
Description: Briefly, 1×10^6PBMCs (freshly isolated) are stimulated with 20 μg of peptides for 6 hours in a total volume of 200 μL in a 96-well plate in presence of Golgi transport inhibitor (37° C., 5% CO2). […] Cells were stained with the LIVE/DEAD® fixable yellow dye (Invitrogen, Eugene, Oreg.). […] The flow cytometry data is collected using BD LSRII and analyzed with the FACS DIVA software.
The cells were subsequently fixed and permeabilized with Cytofix/Cytoperm solution (BD Biosciences) before reaction with anti-cytotoxin antibodies. The antibodies consisted of anti-CD3 APC-H7, anti-CD4 BD Horizon V450, and anti-CD8 FITC followed by anti-GrzB Alexa 700 and anti-GrzA PE (all from BD Biosciences), and anti-perforin PerCP (Abcam, Boston, Mass.).
as §3
Flow cytometry (FACS) for measuring CFSE-proliferation and intracellular cytokine staining (ICS).
Both analyses were performed with BD LSRII and […]™ Software (BD Biosciences), using a positive threshold of >1% CFSE^low for CFSE-proliferation except for ICS studies with threshold of >0.1% T cells expressing cytotoxin.

[5] = tested on: T cells from HIV− subjects; assay: CFSE-proliferation, CD8+ / CD4+ T cells from HIV− control subjects; assay type: cell-based, human
Description: Flow cytometry (FACS) for carboxyfluoresein diacetate succinimide ester (CFSE)-proliferation and intracellular cytotoxin staining (ICS). The CFSE-proliferation analysis was performed on PBMC according to the manufacturer's protocol (Invitrogen, Carlsbad, Calif.) and processed as previously described (Lichterfeld et al. (2004)). Modifications consisted of using 2.0-5.0×10^5 CFSE-labeled cells stimulated for 5 days (37° C., 5% CO^2) with 30 μg/well of total peptides in a pool (15 μg/well for individual peptide, Table 10) or 5 μg/mL PHA in AIM V medium containing 25 μg/mL of gentamycin and 10% heat-inactivated human serum. Subsequently these cells were harvested and labeled with the LIVE/DEAD fixable yellow dye (Invitrogen) and then treated 5 min with anti-CD16/CD32 antibody (Biolegend, San Diego, Calif.) for blocking non-specific binding before phenotype-specific antibodies. The following antibodies were used for the CFSE-proliferation analysis: anti-CD4 APC, anti-CD3 APC-H7, and anti-CD8 Pacific Blue (BD Biosciences, San Jose, Calif.).
as §3, §4, §5

| Substance | cytotoxin expression / CTL-associated activity in CD8+ T cells (in words) [3] | Cytotoxins [4] | T-cell proliferation in HIV− subjects (in words) [5] | cytotoxin expression in CD4+ T cells (in words) [2] | other results |
| --- | --- | --- | --- | --- | --- |
| DQEQNTAEVKLYLK [MAP1b, palmitated multiple antigenic peptide with FIV p24-peptide Fp14-1 alone] |  |  |  |  | effect on in vitro FIV infection [1]: no significant in vitro effect |
| RAEQASQEVKNWMTE [Hp15-1] | robust cytotoxin levels and responder frequencies | High Cytotoxins (The cytotoxin result is considered high when four or five subjects express one or more cytotoxins in the CD8^+ T cells) | not |  | CD4^+ T-cell cytotoxins (4C) [2]: +; CD8^+ T-cell cytotoxins (8C) [3]: +; HIV+ subjects whose CD8+ T cells responded with one or more cytotoxins [3]: five |
| ARMQCRAWY [Fp9-3d] | more cytotoxins | Moderate Cytotoxins (only CD8) | not | very little cytotoxin expression |  |
| concanavalin A [ConA, reference compound] |  |  |  |  | average RT titer ([1]; FIV-enhancing mitogen control, 1:10000 dilution): 54,634 cpm/mL |
| VKNWMTETLLVQNAN [Hp15-3] |  |  | inducers |  | CD4^+ T-cell cytotoxins (4C) [2]: +; CD8^+ T-cell cytotoxins (8C) [3]: +; cytotoxin and CD107a expression in CD4+ and CD8+ T cells (in words) [4]: high levels and frequency of cytotoxin responses |
| KKKSGKWRLLIDFRVLNKL [MAP2] |  |  |  |  | effect on in vitro FIV infection [1]: significantly inhibited; also recorded: inhibition |
| RMQCRAWYL [Fp9-3c] |  | Extremely Low Cytotoxins | not | very little cytotoxin expression |  |
| VKNWMTETL [Hp15-2/3a] |  |  | did not stimulate |  | cytotoxin and CD107a expression in CD4+ and CD8+ T cells (in words) [4]: high cytotoxin and CD107a expression; also recorded: induced expression in both |
| FAPARMQCRAWYLEA [Fp9-3] | more cytotoxins; also recorded: highest frequency of responders | High Cytotoxins (The cytotoxin result is considered high when four or five subjects express one or more cytotoxins in the CD8^+ T cells) | proliferated | very little cytotoxin expression | HIV+ subjects whose CD8+ T cells responded with one or more cytotoxins [3]: up to four |
